ChEMBL document CHEMBL5550217, “Discovery of gem-Dimethyl-hydroxymethylpyridine Derivatives as Potent Non-nucleoside RSV Polymerase Inhibitors” (J Med Chem, 2024)

Assays:
[1] = Metabolic stability in rat hepatocytes assessed as intrinsic clearance measured per 10^6 cells; format: ADME, cell-based, Hepatocyte; conditions: read-out: CLH
[2] = Metabolic stability in rat hepatocytes assessed as intrinsic clearance per 10^6 cells at 1 uM measured upto 180 mins by LC-MS/MS analysis; format: ADME, cell-based, Hepatocyte; conditions: read-out: CLH
[3] = test system: Respiratory syncytial virus; test: Antiviral activity against Respiratory syncytial virus (RSV) assessed as reduction in replicon RNA by Renilla Luciferase assay system; format: functional, organism-based; conditions: human respiratory syncytial virus
[4] = Cytotoxicity against human HeLa cells measured after 3 days by ATPlite kit assay; format: toxicity, cell-based; conditions: time 3 day
[5] = test system: Respiratory syncytial virus; test: Antiviral activity against Respiratory syncytial virus (RSV)-A2-eGFP infected in human HeLa cells assessed as eGFP expression measured after 3 days by RSV Cell-based infection assay; format: functional, organism-based; conditions: 72 h
[6] = Inhibition of RSV RNA polymerase assessed as RNA products using […] template by SPA primer extension enzymatic assay; design: species or system Respiratory syncytial virus
[7] = Clearance in Sprague-Dawley rat at 1.25 mg/kg, iv; format: ADME, organism-based; conditions: in vivo
[8] = Metabolic stability in human hepatocytes assessed as intrinsic clearance per 10^6 cells at 1 uM measured upto 180 mins by LC-MS/MS analysis; format: ADME, cell-based, Hepatocyte; conditions: read-out: CLH
[9] = Metabolic stability in human hepatocytes assessed as intrinsic clearance measured per 10^6 cells; format: ADME, cell-based, Hepatocyte; conditions: read-out: CLH
[10] = test system: Respiratory syncytial virus; test: Antiviral activity against Respiratory syncytial virus (RSV) infected in human APC-126 cells assessed as replicon by measuring protein adjusted effective concentration in the presence of 40% human serum measured after 3 days by Renilla Glo assay; format: functional, organism-based; conditions: 72 h
[11] = Drug recovery in bile duct cannulated rat bile measured for 48 hrs; format: ADME, tissue-based; conditions: read-out: Drug recovery
[12] = Drug recovery in bile duct cannulated rat urine measured for 48 hrs; format: ADME, tissue-based; conditions: read-out: Drug recovery
[13] = Inhibition of RSV RNA polymerase assessed as RNA products using […] template by Flashplate primer extension enzymatic assay; design: species or system Respiratory syncytial virus
[14] = Metabolic stability in human liver microsomes assessed as intrinsic clearance; format: ADME, Microsome; conditions: read-out: CLH

Compound | hepatocyte CLint [1] [µL/min/1e6 cells] | hepatocyte CLint at 1 µM [2] [µL/min/1e6 cells] | EC50 [3] [nM] | CC50 at 72 h [4] [nM] | EC50 [5] [nM] | IC50 [6] [nM] | clearance [7] [mL/min/kg] | hepatocyte CLint at 1 µM [8] [µL/min/1e6 cells] | hepatocyte CLint [9] [µL/min/1e6 cells] | EC50 [10] [nM] | dose excreted at 48 h [11] [%] | dose excreted at 48 h [12] [%] | IC50 [13] [nM] | microsomal CLint [14] [µL/min/mg]
COc1cc(C(=O)NC[C@](O)(c2cc3c(c(-c4ccc(F)cc4)n2)OC[C@]3(C)N)C(F)(F)F)ccc1OC[C@@H](C)O | 54 | 54 | 10 | 58400 | 10 | 5.1 | 89 | 31 | 31 |  |  |  |  | 
COc1cc(C(=O)NC[C@](O)(c2nc(-c3ccc(F)cc3)c(Cl)c(C(C)(C)O)c2F)C(F)(F)F)cc2cc(C)cnc12 |  |  |  | 45800 | 4.8 | 2.9 |  |  |  |  |  |  |  | 
COc1cc(C(=O)NC[C@](O)(c2cc3c(c(-c4ccc(F)cc4)n2)OC[C@]3(C)NS(C)(=O)=O)C(F)(F)F)cc2nc(N)sc12 |  | 72 |  | 13600 | 1.4 | 0.52 | 67.3 | 12 |  |  |  |  |  | 
COc1cc(C(=O)NC[C@](O)(c2cc(C(C)(C)O)c(F)c(-c3ccc(F)cc3)n2)C(F)(F)F)cc2cc(C)c(F)nc12 |  | 57 |  | 13100 | 3.8 | 1.1 |  | 4.3 |  | 48 |  |  |  | 
COc1cc(C(=O)NC[C@](O)(c2cc(C(C)(C)O)c(F)c(-c3ccc(F)cc3)n2)C(F)(F)F)cc2cccnc12 |  | 120 |  | 16000 | 11 | 0.63 |  | 4.1 |  | 310 |  |  |  | 
COc1cc(C(=O)NC[C@](O)(c2cc3c(c(-c4ccc(F)cc4)n2)OC[C@]3(C)NS(C)(=O)=O)C(F)(F)F)ccc1OC[C@@H](C)O |  | 28 |  | 54300 | 12 | 4.8 | 34 | 11 |  |  |  |  |  | 
COc1cc(C(=O)NC[C@](O)(c2cc3c(c(-c4ccc(F)cc4)n2)OC[C@]3(C)NC(C)=O)C(F)(F)F)cc2cc(C)cnc12 |  | 54 |  | 14500 | 2.7 | 0.83 | 13.6 | 4.9 |  |  |  |  |  | 
COc1nc2c(OC)cc(C(=O)NC[C@](O)(c3cc(C(C)(C)O)c(F)c(-c4ccc(F)cc4)n3)C(F)(F)F)cc2cc1C |  |  |  | 31000 | 34 | 1.52 |  |  |  | 1690 |  |  |  | 
COc1cc(C(=O)NC[C@](O)(c2cc3c(c(-c4ccc(F)cc4)n2)OC[C@]3(C)NS(C)(=O)=O)C(F)(F)F)cc2cccnc12 |  | 73 |  | 10200 | 5.3 | 0.7 | 60.9 | 3 |  |  |  |  |  | 
COc1cc(C(=O)NC[C@](O)(c2cc(C(C)(C)O)c(F)c(-c3ccc(F)cc3)n2)C(F)(F)F)cc2cc(C)cnc12 |  | 28 |  | 14600 | 4.5 | 0.42 |  | 6.6 |  | 43 |  |  |  | 
COc1cc(C(=O)NC[C@](O)(c2cc3c(c(-c4ccc(F)cc4)n2)OC[C@]3(C)NS(C)(=O)=O)C(F)(F)F)cc2cc(C)cnc12 |  |  |  | 11400 | 1.3 | 0.36 |  | 3.7 |  |  |  |  |  | 
COc1cc(C(=O)NC[C@](O)(c2cc3c(c(-c4ccc(F)cc4)n2)OC[C@]3(C)NS(C)(=O)=O)C(F)(F)F)cn2cc(CO)nc12 |  | 20 |  | > 90900 | 46 | 3.4 | 51.2 | 4.3 |  |  | 77 | 6 |  | 
COc1cc(C(=O)NC[C@](O)(c2cc(C(C)(C)O)c(F)c(-c3ccc(F)cc3)n2)C(F)(F)F)cc2cc(CF)cnc12 |  |  |  | 39800 | 12.5 |  |  |  |  |  |  |  | 3.82 | 
CC(=O)N[C@@]1(C)COc2c1cc([C@@](O)(CNC(=O)c1cc(OC3CC3)c3ncccc3c1)C(F)(F)F)nc2-c1ccc(F)cc1 |  | 11 |  | 46800 | 19 | 3.7 | 6.13 | < 1.9 |  |  |  |  |  | 
COc1cc(C(=O)NC[C@](O)(c2nc(-c3ccc(F)cc3)c(F)c(C(C)(C)O)c2F)C(F)(F)F)cc2cc(C)cnc12 |  |  |  | 43000 | 2.6 | 0.25 |  | 9.7 |  |  |  |  |  | 
CCc1cc2cc(C(=O)NC[C@](O)(c3cc(C(C)(C)O)c(F)c(-c4ccc(F)cc4)n3)C(F)(F)F)cc(OC)c2nn1 |  |  |  | 21800 | 3.2 | 0.37 |  | 14 |  | 41 |  |  |  | 
COc1cc(C(=O)NC[C@](O)(c2cc(C(C)(C)O)c(F)c(-c3ccc(F)cc3)n2)C(F)(F)F)cc2cc(C(F)(F)F)cnc12 |  | < 1.9 |  | 12600 | 26 |  |  | < 1.9 |  | 802 |  |  | 0.72 | 
COc1cc(C(=O)NC[C@](O)(c2cc(C(C)(C)O)c(F)c(-c3ccc(F)cc3)n2)C(F)(F)F)cc2cc(OC(F)F)nnc12 |  |  |  | 8900 | 5.1 | 0.91 |  |  |  | 1240 |  |  |  | 
COc1cc(C(=O)NC[C@](O)(c2cc(C(C)(C)O)c(F)c(-c3ccc(F)cc3)n2)C(F)(F)F)cc2cc(F)nnc12 |  | 93 |  | 17300 | 6.8 | 1.31 |  | < 1.9 |  | 330 |  |  |  | 
COc1cc(C(=O)NC[C@](O)(c2cc(C(C)(C)O)c(F)c(-c3ccc(F)cc3)n2)C(F)(F)F)cc2cc(Cl)nnc12 |  | 13 |  | 9900 | 1 | 0.22 |  | < 1.2 |  | 110 |  |  |  | 
COc1cc(C(=O)NC[C@](O)(c2cc(C(C)(C)O)c(F)c(-c3ccc(F)cc3)n2)C(F)(F)F)cc2cc(C(F)F)nnc12 |  | 6.9 |  | 18300 | 3.5 | 0.4 |  | < 1.9 |  | 190 |  |  |  | 
COc1cc(C(=O)NC[C@](O)(c2cc(C(C)(C)O)c(F)c(-c3ccc(F)cc3)n2)C(F)(F)F)cc2cc(C(F)F)cnc12 |  | 19 |  | 13200 | 3.6 |  |  | < 1.9 |  | 97 |  |  | 1.7 | 
COc1cc(C(=O)NC[C@](O)(c2cc3c(c(-c4ccc(F)cc4)n2)OC[C@]3(C)NC(C)=O)C(F)(F)F)cc2cccnc12 |  | 11 |  | 12700 | 15 | 4.3 | 19 | 8.8 |  |  |  |  |  | 
COc1cc(C(=O)NC[C@](O)(c2cc(C(C)(C)O)c(F)c(-c3ccc(F)cc3)n2)C(F)(F)F)cc2cc(C3CC3)cnc12 |  |  |  | 12900 | 54 |  |  | < 1.9 |  | 2170 |  |  | 2 | 
COc1cc(C(=O)NC[C@](O)(c2cc(C(C)(C)O)c(F)c(-c3ccc(F)cc3)n2)C(F)(F)F)cc2cc(C)c(C)nc12 |  |  |  | 18400 | 8.6 | 0.96 |  |  |  | 61 |  |  |  | > 347
CC(=O)N[C@@]1(C)COc2c1cc([C@@](O)(CNC(=O)c1cc(OC3CC3)c3ncc(F)cc3c1)C(F)(F)F)nc2-c1ccc(F)cc1 |  |  |  | 14000 | 22 | 3.6 | 2.51 | < 1.9 |  |  |  |  |  | 
COc1cc(C(=O)NC[C@](O)(c2cc(C(C)(C)O)c(F)c(-c3ccc(F)cc3)n2)C(F)(F)F)cc2cc(C3CC3)nnc12 |  |  |  | 8800 | 2.6 | 1.17 |  | < 1.2 |  | 225 |  |  |  | 
COc1cc(C(=O)NC[C@](O)(c2cc(C(C)(C)O)c(Cl)c(-c3ccc(F)cc3)n2)C(F)(F)F)cc2cc(C)cnc12 |  |  |  | 21700 | 1.7 | 1.4 |  | 4.3 |  |  |  |  |  | 
COc1cc(C(=O)NC[C@](O)(c2cc3c(c(-c4ccc(F)cc4)n2)OC[C@]3(C)NC(C)=O)C(F)(F)F)ccc1OC[C@@H](C)O |  | 13 |  | 73200 | 14 | 23 |  |  |  |  |  |  |  | 
